Experimental data as given in patent US6642266B2, “EP4 receptor selective agonists in the treatment of osteoporosis” (Pfizer Inc., priority 1999, dated 2003).

How the values were obtained:
OVX rat model = assay: Bone mass restoration in OVX rat model (femoral DEXA); assay type: in vivo; conditions: subcutaneous 30 mg/kg/day for 28 days
Description: The purpose of this study is to determine whether an EP4 receptor selective agonist, and specifically 7-(2-(3-hydroxy-4-phenyl-butyl)-5-oxo-pyrrolidin-1-yl)-heptanoic acid, can restore bone mass in OVX rat model.
Sprague-Dawley […] rats were ovariectomized (OVX) at 3.5 months of age. Ten months after OVX, the rats were treated by subcutaneous injection with vehicle or 7-(2-(3-hydroxy-4-phenyl-butyl)-5-oxo-pyrrolidin-1-yl)-heptanoic acid at 30 mg/kg/day for 28 days. The rats were autopsied. The right femur from each rat was removed at autopsy and scanned using dual energy x-ray absorptiometry (DEXA, QDR 1000/W, Hologic Inc., Waltham, Mass.) equipped with “Regional High Resolution Scan” software (Hologic Inc., Waltham, Mass.). The scan field size was 5.08×1.902 cm, resolution is 0.0254×0.0127 cm and the scan speed was 7.25 mm/second. The femoral scan images were analyzed. Bone mineral content (BMC) and bone mineral density (BMD) of whole femora (WF), distal femoral metaphysis (DFM), and femoral shaft (FS) were determined according to the method described in H. Z. Ke et al., Droloxifene, a New Estrogen Antagonist/Agonist, Prevents Bone Loss in Ovariectomized Rats. ENDOCRINOLOGY 136;2435-2441, 1995.

EP3 receptor = biological target: T1, EP3 receptor (Homo sapiens, UniProt P43115); assay: Assay for binding to prostaglandin E2 receptors (3H-PGE2 displacement), EP3; conditions: read-out: IC50 at EP3 receptor subtype
T1 construct: expressed in transfected cells
T1 sequence (P43115 1-390): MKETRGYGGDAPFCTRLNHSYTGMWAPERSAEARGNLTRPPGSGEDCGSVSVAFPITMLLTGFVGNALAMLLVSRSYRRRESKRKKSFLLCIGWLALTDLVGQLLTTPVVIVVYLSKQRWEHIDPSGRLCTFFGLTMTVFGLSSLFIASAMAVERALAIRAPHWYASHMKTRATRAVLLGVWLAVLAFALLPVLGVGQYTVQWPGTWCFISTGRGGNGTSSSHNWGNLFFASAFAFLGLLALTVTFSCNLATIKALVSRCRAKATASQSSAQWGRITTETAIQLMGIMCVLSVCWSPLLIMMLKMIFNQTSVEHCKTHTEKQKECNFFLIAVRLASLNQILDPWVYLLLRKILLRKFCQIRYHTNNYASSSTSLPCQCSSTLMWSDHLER
Description: (§1) Membrane Preparation: All operations are performed at 4° C. Transfected cells expressing prostagiandin E2 type 1 receptors (EP1), type 2 (EP2), type 3 (EP3) or type 4 (EP4) receptors are harvested and suspended to 2 million cells per ml in Buffer A [50 mM Tris-HCl (pH 7.4), 10 mM MgCl2, 1 mM EDTA, 1 mM Pefabloc peptide, (Boehringer Mannheim Corp., Indianapolis, Ind.), 10 uM Phosporamidon peptide, (Sigma, St. Louis, Mo.), 1 uM pepstatin A peptide, (Sigma, St. Louis, Mo.), 10 uM elastatinal peptide, (Sigma, St. Louis, Mo.), 100 uM antipain peptide, (Sigma, St. Louis, Mo.)]. The cells are lysed by sonification with a Branson Sonifier (Model #250, Branson Ultrasonics Corporation, Danbury, Conn.) in 2 fifteen second bursts. Unlysed cells and debris are removed by centrifugation at 100×g for 10 min. […] Pelleted membranes are resuspended to 3-10 mg of protein per ml of Buffer A, the protein concentration being determined by the method of Bradford [Bradford, M., Anal. Biochem., 72, 248 (1976)]. […]
(§2) Binding Assay: Frozen membranes prepared as above are thawed and diluted to 0.5 mg/ml (for rat EP2) or 0.3 mg/ml (for rat EP4) in Buffer A above. […] To determine the amount of ^3H-prostaglandin bound to the membranes, the dried filters are placed into plastic bags with scintillation fluid and counted in a LKB 1205 Betaplate reader (Wallac, Gaithersburg, Md.). […]

EP2 receptor = biological target: T2, EP2 receptor (Rattus norvegicus, UniProt Q62928); assay: Assay for binding to prostaglandin E2 receptors (3H-PGE2 displacement), EP2; conditions: read-out: IC50 at EP2 receptor subtype
T2 construct: expressed in transfected cells
T2 sequence (Q62928 whole entry): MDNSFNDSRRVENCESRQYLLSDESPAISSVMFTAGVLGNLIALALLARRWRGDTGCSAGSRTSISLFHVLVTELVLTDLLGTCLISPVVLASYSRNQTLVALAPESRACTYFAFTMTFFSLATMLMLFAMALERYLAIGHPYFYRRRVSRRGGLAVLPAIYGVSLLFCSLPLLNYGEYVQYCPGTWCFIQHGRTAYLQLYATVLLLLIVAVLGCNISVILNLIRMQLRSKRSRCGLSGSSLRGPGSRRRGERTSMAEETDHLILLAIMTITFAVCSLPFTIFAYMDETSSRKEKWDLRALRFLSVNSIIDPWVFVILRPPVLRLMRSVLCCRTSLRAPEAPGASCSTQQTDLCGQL
Description: as §1, §2

EP1 receptor = biological target: T3, EP1 receptor (Homo sapiens, UniProt P34995); assay: Assay for binding to prostaglandin E2 receptors (3H-PGE2 displacement), EP1; conditions: read-out: IC50 at EP1 receptor subtype
T3 construct: expressed in transfected cells
T3 sequence (P34995 1-402): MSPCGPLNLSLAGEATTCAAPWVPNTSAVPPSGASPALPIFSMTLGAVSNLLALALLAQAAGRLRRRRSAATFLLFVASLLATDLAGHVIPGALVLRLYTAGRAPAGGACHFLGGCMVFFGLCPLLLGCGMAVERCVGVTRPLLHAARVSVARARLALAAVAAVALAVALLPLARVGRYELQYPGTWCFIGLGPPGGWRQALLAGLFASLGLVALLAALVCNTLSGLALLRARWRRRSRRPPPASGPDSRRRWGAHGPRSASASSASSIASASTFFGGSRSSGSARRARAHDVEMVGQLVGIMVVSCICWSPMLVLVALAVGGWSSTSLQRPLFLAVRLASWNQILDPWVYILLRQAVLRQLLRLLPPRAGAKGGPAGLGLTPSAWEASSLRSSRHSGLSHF
Description: as §1, §2

EP4 receptor = biological target: T4, EP4 receptor (Rattus norvegicus, UniProt P43114); assay: Assay for binding to prostaglandin E2 receptors (3H-PGE2 displacement), EP4
T4 construct: expressed in transfected cells
T4 sequence (P43114 whole entry): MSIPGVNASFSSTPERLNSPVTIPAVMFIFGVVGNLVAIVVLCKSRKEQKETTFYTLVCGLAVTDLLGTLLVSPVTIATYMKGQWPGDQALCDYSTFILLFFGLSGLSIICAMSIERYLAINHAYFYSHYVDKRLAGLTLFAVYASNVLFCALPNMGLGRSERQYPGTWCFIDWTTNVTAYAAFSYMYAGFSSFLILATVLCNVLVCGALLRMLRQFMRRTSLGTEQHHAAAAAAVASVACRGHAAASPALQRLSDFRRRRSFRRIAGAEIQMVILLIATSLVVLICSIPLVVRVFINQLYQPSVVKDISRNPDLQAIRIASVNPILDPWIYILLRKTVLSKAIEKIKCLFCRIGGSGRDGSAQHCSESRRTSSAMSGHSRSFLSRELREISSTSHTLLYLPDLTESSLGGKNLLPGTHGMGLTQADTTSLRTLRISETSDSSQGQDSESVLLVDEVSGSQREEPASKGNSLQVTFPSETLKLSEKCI
Description: as §1, §2

[1] = OVX rats, compared with OVX rats treated with vehicle

## O=C(O)CCCCCCN1C(=O)CCC1CCC(O)Cc1ccccc1 (stereo not drawn) [7-(2-(3-hydroxy-4-phenyl-butyl)-5-oxo-pyrrolidin-1-yl)-heptanoic acid]
OVX rat model; OVX rats
  PGE2-like side effects: No PGE2-like side effects were seen
OVX rat model; [1]
  distal femoral BMC increased: 8%
  distal femoral BMD increased: 8%
  femoral shaft BMC increased: 20%
  femoral shaft BMD increased: 18%
  total femoral BMC increased: 17%
  total femoral BMD increased: 13%
OVX rat model
  bone formation and bone restoration in established osteopenic OVX rats: stimulates bone formation and restores bone
EP3 receptor
  IC50: > 3.2 µM
EP2 receptor
  IC50: > 3.2 µM
EP1 receptor
  IC50: > 3.2 µM
EP4 receptor
  IC50: 0.016 µM
